# Measured values taken from ChEMBL document CHEMBL1921682, “Molecular properties prediction and synthesis of novel 1,3,4-oxadiazole analogues as potent antimicrobial and antitubercular agents” (Bioorg Med Chem Lett, 2011).
# Experiments:
# [1] = system: Mycobacterium tuberculosis; format: functional
# [2] = system: Mycobacterium tuberculosis; assay: microbe, parasite or virus in culture
compound,measurement,setting,value
Cc1c(NCc2nnc(-c3ccc(N)cc3)o2)c(=O)n(-c2ccccc2)n1C,Ratio,[1],1.4
same,MIC90,[2],8.29 µM
Cc1c(NCc2nnc(-c3cccs3)o2)c(=O)n(-c2ccccc2)n1C,MIC90,[2],13.6 µM
Cc1c(NCc2nnc(-c3ccccc3Cl)o2)c(=O)n(-c2ccccc2)n1C,MIC90,[2],12.7 µM
Cc1c(NCc2nnc(Cc3ccccc3)o2)c(=O)n(-c2ccccc2)n1C,MIC90,[2],> 13.3 µM
Cc1c(NCc2nnc(-c3ccccc3)o2)c(=O)n(-c2ccccc2)n1C,MIC90,[2],13.8 µM
Cc1c(NCc2nnc(-c3ccc(Cl)cc3)o2)c(=O)n(-c2ccccc2)n1C,MIC90,[2],12.7 µM
NNC(=O)c1ccncc1 [ISONIAZID],MIC90,[2],11.6 µM
Cc1c(NCc2nnc(-c3ccncc3)o2)c(=O)n(-c2ccccc2)n1C,Ratio,[1],7.6
same,MIC90,[2],1.52 µM
Cc1ccc(-c2nnc(CNc3c(C)n(C)n(-c4ccccc4)c3=O)o2)cc1,MIC90,[2],13.3 µM
Cc1c(NCc2nnc(COc3ccccc3)o2)c(=O)n(-c2ccccc2)n1C,MIC90,[2],12.8 µM
